The source of these data is the METLIN SMRT retention time set (Domingo-Almenara et al. 2019).

This data set is described as follows: gradient 5% acetonitrile 3 min, to 50% in 2 min, to 85% in 15 min, held 3 min, 100 µL/min. To be noted: column: Zorbax Extend-C18 2.1 x 50 mm; eluents: water / acetonitrile, 0.1% formic acid. The essentials: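 In both positive and negative ionization mode, a quadrupole time-of-flight mass spectrometer coupled to HPLC analyzed pure standards run in mixtures of ~100 molecules. The Zorbax Extend-C18 column (2.1 × 50 mm, 1.8 μm) was operated at 100 μL/min with water and acetonitrile, each containing 0.1% formic acid. The dead volume was 40 μL and the dwell volume 900 μL. Retention time came from adduct peaks that were computationally picked and individually inspected by hand.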
In turn, `CCOc1ccc(CNC(=O)C2=C3CCCN3c3ccc(F)cc3S2(=O)=O)cc1` had an RP-LC retention time of 892 s.
The value for `CC1CS(=O)(=O)N(c2ccc(S(=O)(=O)N3CCC(C(N)=O)CC3)cc2)C1=O` (centres undefined) was 640 s.
With `CCn1nc(C)c(CCNC(=O)c2ccc3c(c2)NC(=O)C2CCCCN32)c1C` (centres undefined) the figure was 636 s.
`COc1ccc(CC(=O)Nc2ccc3c(c2)Sc2ncccc2C(=O)N3C)cc1Cl`: the RP-LC retention time is 807 s.
With `COC(=O)c1ccc(NC(=O)C(=O)NCc2ccccn2)cc1` the figure was 592 s.
With `Cc1ccc(NC(=O)Cn2c(=O)n(-c3ccc(F)cc3)c(=O)c3c2cc(C)n3C)cc1Cl` the figure was 946 s; with `CCC(=O)Nc1ccc(C2(C(=O)NC(C)CC)CCCCC2)cc1` (centres undefined), 845 s.
The value for `CCSc1nnc(-c2nn(C)c3c2CN(C(=O)c2ccccc2F)CC3)n1C` was 732 s; that for `COc1ccccc1N1CCN(c2cc(SCC(=O)Nc3ccc(F)c(Cl)c3)ncn2)CC1` was 1090 s.
In turn, `CC(C)N1C(=O)c2cccnc2Sc2cc(NC(=O)C(C)(C)C)ccc21` registered an RP-LC retention time of 828 s.
The value for `Cc1ccc(C)c(N2CCN(c3ccnc(SCC(=O)Nc4ccc5c(c4)OCO5)n3)CC2)c1` was 858 s; that for `Cc1ccc2c(=O)c3c([nH]c2c1C)CCN(CC(=O)Nc1ccc(F)cc1F)C3` was 615 s.
The value for `Cn1c(=O)oc2cc(-c3noc(-c4cc(F)ccc4F)n3)ccc21` was 1010 s; that for `Cc1noc(C)c1S(=O)(=O)N1CCC(c2nc(CCOCc3ccccc3)no2)C1` (centres undefined) was 984 s; that for `CCn1cc(-c2nc(C(=O)Nc3ccc(F)cc3Cl)cs2)c2cccnc21` was 1350 s.
On to `Cc1c(C(=O)NC2CCCC2)cnn1-c1ccc(-c2nc(C(C)C)no2)cn1`, for which the RP-LC retention time came out at 741 s.
The molecule `CC(C)NC(=O)CN1C(=O)C2CCCCN2c2ccc(S(=O)(=O)N(C)C)cc21` (centres undefined) registered an RP-LC retention time of 781 s.
With `Cc1nc2ccn(Cc3cccs3)c(=O)c2cc1C(=O)N1CCOCC1` the figure was 648 s; with `Cc1noc(C)c1CC(=O)N1CCc2ccccc2[C@H]1C`, 732 s.
The value for `Cc1cc(C)c2c(N3CCCC3)nc(C(=O)NCc3ccc(C)o3)nc2n1` was 577 s.
Molecule `COc1ccc(C(=O)N2CCC3(C2)C(=O)N(C)c2ccccc23)cc1` (centres undefined) gave an RP-LC retention time of 743 s.
In the case of `CN(C)S(=O)(=O)c1ccc2c(c1)N(CC(=O)Nc1ccc(Cl)cc1)C(=O)C1CCCCN21` (centres undefined), the RP-LC retention time came to 988 s.
With `Cc1ccc(-n2cc(C(=O)N3CCC(C(N)=O)CC3)nn2)cc1` the figure was 641 s.
The value for `Cc1sc(-c2cc(C(F)(F)F)on2)cc1S(=O)(=O)N1CCC2(CC1)OCCO2` was 1120 s; that for `O=C(c1cccc(OC(F)(F)F)c1)N1CCN(c2cc(-c3cccs3)[nH]n2)CC1` was 828 s.
The value for `CC(=O)Nc1ccc(SCc2c(F)cccc2Cl)nn1` was 787 s; that for `O=S(=O)(c1ccc2c(c1)CCC2)N1CCc2nc(-c3ccccc3)ncc2C1` was 1190 s; that for `O=C(c1cc2ccccc2oc1=O)N1CCCC(c2nnc(-c3ccccc3)o2)C1` (centres undefined) was 793 s.
As for `O=C(c1cccs1)N1CCN(c2ccc(-c3noc(C4CC4)n3)cc2)CC1`, the RP-LC retention time is 949 s.
The value for `NC(=O)c1cnn2c3c(cnc12)CCCCCC3` was 801 s; that for `CSc1ccc(-c2nc3cnccn3c2Nc2ccc(Cl)cc2)cc1` was 1010 s; that for `Cn1cc2c(N3CCSCC3)nc(C(=O)NCc3ccc(N4CCCC4)cc3)nc2n1` was 699 s.
With `CC1CCN(S(=O)(=O)c2ccc(-c3nnc(C(C)C)o3)o2)CC1` the figure was 964 s; with `O=c1c2oc3ccccc3c2ncn1Cc1nc(-c2ccc(OC(F)(F)F)cc2)no1`, 1050 s.
With `CCc1ccccc1NC(=O)N(C)CCc1noc(COc2ccccc2F)n1` the figure was 907 s; with `C=CCN1C(=O)COc2ccc(-c3nc(NC(=O)c4ccc(OC)c(OC)c4)sc3C)cc21`, 985 s; with `COc1ccccc1CNC(=O)C1CCCN(C(=O)c2cc3sccc3n2C)C1` (centres undefined), 852 s.
`CCc1ccccc1NC(=O)N(C)CC1CCOC1` (centres undefined): the RP-LC retention time was 699 s.
With `Cn1cc(CCN2CCN(S(=O)(=O)c3ccc(F)c(Cl)c3)CC2)c2cccnc21` the figure was 660 s.
With `Fc1cccc(CNc2cc(-n3cccn3)ncn2)c1` the figure was 854 s; with `N#Cc1cccc(CN2CCCCC2c2nncn2CC2CC2)c1` (centres undefined), 618 s; with `Cc1ncc2c(n1)C[C@@H]1CC[C@H]2N1C(=O)c1ccnn1C`, 584 s.
In the case of `COc1cccc(CNC(=O)Cn2cnc3nc(N4CCCC(C(=O)NC5CC5)C4)sc3c2=O)c1` (centres undefined), the RP-LC retention time is 666 s.
As for `Cc1ccc(S(=O)(=O)N2C[C@@H](F)C[C@H]2C(=O)N2CCc3ccccc3C2)cc1C`, the RP-LC retention time came out at 973 s.
The value for `Cc1ccc(Nc2nc(-c3ccc(C(C)C)cc3)cs2)nc1` was 1130 s.
With `Cc1ccn2cc(-c3ccc(NS(=O)(=O)c4ccccc4Cl)cc3)nc2n1` the figure was 642 s.
With `Cn1c(=O)c2ccn(CC(=O)N3CCC(C(N)=O)(N4CCCCC4)CC3)c2n(C)c1=O`, the RP-LC retention time was determined as 728 s.
The value for `COc1ccc(NC(=O)N2[C@H]3CC[C@@H]2c2cncnc2C3)c(OC)c1` was 639 s.
`CCOc1ccc(-n2ccn3cc(-c4ccc(F)cc4F)nc3c2=O)cc1` yielded an RP-LC retention time of 916 s.
With `Cc1ccn2c(Nc3ccc4c(c3)OCCO4)c(-c3cccc(Cl)c3)nc2c1` the figure was 727 s.
With `COc1ccc(-c2cc3c(=O)n(Cc4nc(-c5cccc(OC)c5OC)oc4C)ccn3n2)cc1` the figure was 990 s; with `Cn1c(CNC(=O)CSc2nnc3c4ccccc4nc(-c4ccco4)n23)nc2ccccc21`, 632 s.
With `CCC(O)c1nc2ccccc2n1CC(=O)N(C)c1ccccc1` (centres undefined) the figure was 624 s; with `CCc1ccc(CNC(=O)c2ccc3ncnc(N4CCCC4)c3c2)cc1`, 697 s; with `CCCCS(=O)(=O)N1CCC(F)(c2nc(-c3ccccc3)no2)CC1`, 1080 s.
On to `O=C(Cc1ccccc1Br)NC1CCN(c2cc(-c3cccs3)[nH]n2)C1` (centres undefined), for which the RP-LC retention time is 689 s.
With `Cc1ccc(C)c(N2CCN(c3cc(C(=O)O)c4cc(NS(C)(=O)=O)ccc4n3)CC2)c1` the figure was 1110 s.
The value for `Cc1ccccc1CNC(=O)c1csc(-c2cn(C)c3ncccc23)n1` was 1120 s; that for `O=C(NCc1cccc(Cl)c1)c1cccn1-c1cccnc1` was 749 s; that for `CCN1C(=O)COc2ccc(-c3csc(NC(=O)c4cccs4)n3)cc21` was 940 s.
With `COc1cccc2cc(C(=O)NC3C=CS(=O)(=O)C3)oc12` (centres undefined) the figure was 652 s; with `COc1ccc(Cl)cc1NS(=O)(=O)c1c(C)sc(C)c1-c1cc(C(F)(F)F)on1`, 1220 s; with `Cc1cc(C)cc(NC(=O)NCC(c2cccnc2)c2cn(C)c3ccccc23)c1` (centres undefined), 711 s.
In turn, `O=C(c1cccs1)N1CCN(c2[nH]ncc2-c2ccccc2)CC1` returned an RP-LC retention time of 808 s.
With `Cc1nnc2n1CCC(N(C)C(=O)c1ccsc1)CC2` (centres undefined) the figure was 566 s; with `CC(=O)c1cccc(NC(=O)Nc2cccc(-c3ccc(N4CCOCC4)nn3)c2)c1`, 655 s; with `CN(C)c1ccc(CNc2ccc(-c3nc(-c4ccc(F)cc4)no3)cn2)cc1`, 889 s.
With `O=C1C(c2cccnc2)N(Cc2ccco2)C(=O)CN1c1ccccc1` (centres undefined) the figure was 619 s; with `O=C(c1ccccc1Cl)N1CC2CC(C1)c1cccc(=O)n1C2` (centres undefined), 596 s; with `COc1ccc(-c2nnc(N3CCC(C(=O)NC(C)c4ccc(C)cc4C)CC3)o2)cc1` (centres undefined), 934 s.
`CC(=O)Nc1ccc(C(=O)NCc2ccc(C)o2)c(N2CCOCC2)c1` gave an RP-LC retention time of 684 s.
The value for `COc1cc2c(cc1OC)C(C(=O)NCCCN1CCCC1)C(c1cccs1)N(C)C2=O` (centres undefined) was 606 s; that for `c1ccc(-c2nc(-c3cnccn3)no2)c(OC2CCN(C3CCSCC3)C2)c1` (centres undefined) was 653 s.
`Cc1ccc(N(C)C(=O)n2cnc3ccccc32)cc1` had an RP-LC retention time of 767 s.
`CCNC(=O)N1CCCC(c2cccc(C(=O)NCc3ccc(F)cc3F)c2)C1` (centres undefined) showed an RP-LC retention time of 804 s.
The molecule `Cc1noc(C2(NC(=O)/C=C/c3cccnc3)CCCCC2)n1` had an RP-LC retention time of 609 s.
`Cn1nc(C(=O)N2C[C@@H]3C[C@H]2C[C@@H]3NC(=O)c2cccs2)c2ccccc21` came in with an RP-LC retention time of 766 s.
The value for `COc1ccc(-c2cn3c(CC(=O)N4c5ccccc5CC4C)csc3n2)cc1OC` (centres undefined) was 797 s; that for `CC(C)Cn1cc(S(=O)(=O)Nc2ccccc2Cl)c2cccnc21` was 1020 s.
